Values quoted from earlier work in patent US20150272124A1, “ANTIMICROBIAL COMPOSITIONS CONTAINING CATIONIC ACTIVE INGREDIENTS” (Ecolab USA Inc., priority 2014, published 2015).

Conditions: calcium-chelating agent complex, logarithmic form

O=C(O)CC(NC(CC(=O)O)C(=O)O)C(=O)O (stereo not shown) [IDS, Iminodisuccinic Acid]
Log Stability constant, Ca2+: 5.2
